Where two headings read alike, the source gives them in different places.

As a reminder, the IC50 is the point on the concentration scale where inhibition reaches its midpoint.

Data set [1] relates to SHSY-5Y cells. Description: MTT growth inhibition assay in SHSY-5Y dopaminergic cells. In kind it is cell-based, human. The settings on record: read-out: SHSY-5Y IC50. The protocol: The 19-substituted benzoquinone ansamycins were also tested in vitro for their ability to reduce the toxicity of BQAs to SH-SY5Y cells a dopaminergic model system of relevance to neurodegenerative disease. Referring to FIG. 9, toxicity of BQAs in SH-SY-5Y cells was measured using trypan blue exclusion (panel A), MTT growth inhibition assay (panel B) and annexin V/PI staining for apoptosis (panel C). Cells in A and C were treated with BQAs (5 μM) for 16 h; cells in B were treated with BQAs for 4 h then allowed to grow in drug-free medium for 72 h. […] The combination of these two properties are likely to be important to the neuroprotective properties of the 19-substituted BQAs.
Growth inhibition assays (MTT) were conducted in human SHSY-5Y cells following a 4 hr treatment with GA or 19Me-GA. Cell were allowed to grow for 72 hrs following drug treatment. The 19-methyl substituted compounds in all series were minimally toxic (see FIG. 12 for data with geldanamycin, MTT assay, results are expressed as the mean±SD, n=3).
For orientation: Tetrazolium assays rely on reduction of a dye to a coloured formazan, in cell work by metabolically active cells.

The test system of data set [2] is Hsp90 (Raf-1, AKT degradation and Hsp70 induction). The data set can be described thus: Biomarkers of Hsp90 inhibition in MDA468/NQ16 cells. In kind it is cell-based, human. The protocol:
(§1) The ability of 19-substituted BQAs to induce growth inhibition was measured by MTT in isogenic MDA468 (null NQO1) and MDA468/NQ16 (high NQO1) cells. […] Biomarkers of Hsp90 inhibition (Raf-1, AKT degradation and Hsp70 induction) were more pronounced in MDA468/NQ16 cells compared to MDA468 cells following treatment with 19-substituted DMAG analogs.

Data set [3] has as its system MDA468/NQ16 breast cancer cells. Description: MTT growth inhibition in isogenic MDA468/NQ16 and MDA468 cells. In kind it is cell-based, human. The conditions noted are these: NQO1-rich vs NQO1-null isogenic cells. The protocol: The 19-substituted benzoquinone ansamycins were also tested in vitro for their ability to inhibit growth similar to DMAG in human breast cancer cells (FIG. 10). MDA468/NQ16 breast cancer cells were treated with 19-substituted DMAG analogs for 4 hours, after which drug-containing media was removed and cells were allowed to grow for an additional 72 h. Cell viability was determined using the MTT assay.
as §1

The conditions of data set [4]: Phase I / phase 1 clinical trials; cited from earlier work.
The nature of data set [5]: Glutathione conjugation of benzoquinone ansamycins (HPLC, LC-MS). The conditions noted are these: 50 μM BA, pH 7.4, room temperature. In kind it is in vitro ADME. Here is the method:
BA-GSH conjugate formation was analyzed by HPLC at 270 nm and further confirmed by LC-MS.

In data set [6] the test system is BT474 human breast cancer cells. The data set can be described thus: MTT growth inhibition in BT474 cells. In kind it is cell-based. The conditions noted are these: BT474, 4 hr treatment, MTT 72 h later. The protocol: (§2) The inventors extended the studies with 19-substituted DMAG analogs to include the Her2^+ human breast cancer cell line BT474 (FIG. 15). Growth inhibition (FIG. 15, left panel) was measured in BT474 cells following treatment with analogs for 4 hr. Growth inhibition (MTT) was performed 72 h following drug treatments. Biomarkers of Hsp90 inhibition, Raf-1, AKT, CDK4 and Her2 degradation as well as Hsp70 induction were measured by immunoblot analysis in human BT474 breast cancer cells following treatment with 19-substituted DMAG analogs (5 μM) for 24 hr ([…], left panel).

Data set [7] deals with primary mouse hepatocytes. The data set can be described thus: Hepatotoxicity in primary mouse hepatocytes (MTT). The conditions noted are these: 4 hr, confirmed by Trypan Blue and AST leakage. In kind it is cell-based. Here is the method: The inventors next tested the effect of 19-substitution of BQAs on hepatotoxicity in isolated hepatocyte systems. Isolated primary mouse hepatocytes were grown on coated 96-well plates and exposed to BQAs for 4 h after which their survival was determined using the MTT assay.
As described above, a major obstacle in the development of BQA as drugs has been their ability to induce hepatotoxicity in preclinical studies. […] Toxicity was measured using MTT assay and confirmed using Trypan Blue and AST leakage. The data shown in FIG. 19 were generated using MTT analysis but similar readouts were obtained using either trypan blue exclusion or leakage of AST from hepatocytes.

The subject of data set [8] is Hsp90. Description: Biomarkers of Hsp90 inhibition in MiaPaCa2 cells. In kind it is cell-based, human. The settings on record: 5 μM, 24 hr (FIG. 16C). The protocol:
(§3) The inventors also examined the ability of 19 BQAs to inhibit the growth of human pancreatic cancer cell lines (FIG. 16). For growth inhibition studies (MTT) cells were treated with drugs for 4 hr and then allowed to grow for 72 h. For biomarker studies MiaPaCa2 cells were treated with DMAG analogs (5 μM) for 24 hr. 19 BQAs inhibit the growth of human pancreatic cancer cell lines (FIG. 16A, 16B) and induce biomarkers of Hsp90 inhibition (FIG. 16C) using isogenic Panc-1 (NQO1 null) and Panc-1/C5 (NQO1 expressing) cell lines.

The subject of data set [9] is cdc37/Hsp90 interaction. Description: Immunoprecipitation of cdc37 with Hsp90 in BT474 and MDA468/NQ16 cells. In kind it is cell-based, human. The settings on record: 5 μM, 24 hr. The protocol: Similarly, the association of cdc37 with hsp90 was examined in BT474 cells and MDA468/NQ16 cells by immunoprecipitation following treated with analogs (5 μM) for 24 hr. […] This finding is consistent with X ray data using purified Hsp90 showing that the larger 19-phenyl substituent causes greater conformational change in the Hsp90 structure than smaller 19-substituents (not shown). This also correlates with the differential effect of 19-phenyl and 19-methyl DMAG on clients chaperoned by cdc37 to Hsp90 which include Raf1, Akt, cdc2 and cdk4 (FIGS. 8,9,10).

For data set [10], the system named is p23/Hsp90 interaction. Description: Immunoprecipitation of p23 and Hsp90 in BT474 cells. In kind it is cell-based, human. The conditions noted are these: 5 μM, 24 hr. Here is the method:
Forward and reverse immunoprecipitation studies were performed in BT474 cells treated with DMAG analogs (5 μM) for 24 hr.

Data set [11] deals with Hsp90 (Raf-1, AKT, CDK4, Her2 degradation, Hsp70 induction). Description: Immunoblot biomarkers of Hsp90 inhibition in BT474 cells. In kind it is cell-based, human. The protocol:
as §2
In general terms: A western blot detects proteins with antibodies after separation by electrophoresis.

The subject of data set [12] is MiaPaCa2 human pancreatic cancer cells. The data set can be described thus: MTT growth inhibition in MiaPaCa2 cells. The settings on record: 4 hr treatment, then 72 h growth, MTT, read-out: IC50 MiaPaCa2. In kind it is cell-based. Here is the method:
as §3

Data set [13] deals with human pancreatic cancer cell lines (Panc-1, Panc-1/C5). The data set can be described thus: MTT growth inhibition in human pancreatic cancer cell lines. In kind it is cell-based. The settings on record: human pancreatic cancer cell lines, 4 hr treatment, 72 h growth, MTT (FIG. 16A). The protocol:
as §3

The mark [14] stands for this setting: 4 hr treatment, then 72 hrs growth, MTT.
Where [15] appears, read: Homo sapiens, SH-SY5Y, 4 hr treatment, then 72 hrs growth, MTT.

Take `C=CCNC1=C2C[C@@H](C)C[C@H](OC)[C@H](O)[C@@H](C)/C=C(\C)[C@H](OC(N)=O)[C@@H](OC)/C=C\C=C(/C)C(=O)NC(=CC1=O)C2=O` [17AAG, 17-demethoxy-17-(2-propenylamino)-geldanamycin, reference compound]: the IC50 in data set [1] (setting [14]) came out at 16.2 µM. In data set [2], the “effect on markers of Hsp90 inhibition (Hsp70 induction and Raf-1 degradation) in MDA468/NQ16 compared to MDA468 cells” value was “greater effect on markers of Hsp90 inhibition”. For the same compound, in [3], the “decrease in IC50 in MDA468/NQ16 cells compared to MDA468 cells” value is recorded as “greater than 66 fold”. Further, the “hepatotoxicity / toxicity in clinical trials” value (from here on “hepatotoxicity / toxicity”) in data set [4] is given as “dose-limiting toxicity”.
With `CO[C@H]1/C=C\C=C(/C)C(=O)NC2=CC(=O)C(NCCN3CCCC3)=C(C[C@@H](C)C[C@H](OC)[C@H](O)[C@@H](C)/C=C(\C)[C@@H]1OC(N)=O)C2=O` [17AEP-GA, 17-demethoxy-17-[[2-(pyrrolidin-1-yl)ethyl]amino]-geldanamycin], the “fraction conjugated with glutathione” value in data set [5] (5 mM glutathione, within 10 h) is recorded as “about 90%”.
With `C=CCNC1=C2C[C@@H](C)C[C@H](OC)[C@H](O)[C@@H](C)/C=C(\C)[C@H](OC(N)=O)[C@@H](OC)/C=C\C=C(/C)C(=O)NC(=C(C)C1=O)C2=O` [19Me-17AAG, (4E,6Z,8S,9S,10E,12S,13R,14S,16R)-19-(Allylamino)-13-hydroxy-8,14-dimethoxy-4,10,12,16,21-pentamethyl-3,20,22-trioxo-2-azabicyclo[16.3.1]docosa-1(21),4,6,10,18-pentaen-9-yl carbamate], the IC50 in data set [1] (Homo sapiens, SH-SY5Y) was greater than 20 µM.
In the case of `CO[C@H]1/C=C\C=C(/C)C(=O)NC2=C(C)C(=O)C(NCCN(C)C)=C(C[C@@H](C)C[C@H](OC)[C@H](O)[C@@H](C)/C=C(\C)[C@@H]1OC(N)=O)C2=O` [19Me-DMAG, (4E,6Z,8S,9S,10E,12S,13R,14S,16R)-19-(2-(Dimethylamino)ethylamino)-13-hydroxy-8,14-dimethoxy-4,10,12,16,21-pentamethyl-3,20,22-trioxo-2-azabicyclo[16.3.1]docosa-1(21),4,6,10,18-pentaen-9-yl carbamate], the growth inhibition entry in [6] is listed as “no growth inhibition could be observed”. The hepatotoxicity entry in data set [7] is recorded as “no toxicity was observed”. The “induction of biomarkers of Hsp90 inhibition” value in data set [8] was “little effect”. Also, the “interaction of cdc37 with Hsp90” value in [9] is given as “had little effect”. For the same compound, the IC50 in [1] (setting [15]) is greater than 20 µM. In addition, in data set [10], the “interaction of p23 and Hsp90” value is “disrupted the interaction of p23 and Hsp90”. In addition, in data set [2] (MDA468/NQ16 (high NQO1) cells), the Hsp70 induction entry is reported as “equivalent Hsp70 response to 19-phenyl DMAG”; the “Raf-1 and AKT degradation” value was “much less pronounced effect on Hsp90 Raf1 and Akt”. Besides, in [11] (BT474, 5 μM, 24 hr, immunoblot), the Hsp70 induction result is reported as “robust Hsp70 response” and the “effects on Hsp90 client proteins (Raf-1, AKT, Her2, CDK4)” value is “diminished effects on Hsp90 client proteins”. Besides, the “effects on clients chaperoned by cdc37 to Hsp90 (Raf1, Akt, cdc2, cdk4)” value in data set [11] (cell line not given) was “had little effect”. Besides, the IC50 in data set [12] (Homo sapiens, MIA PaCa-2) is 35.8 ± 5.5 µM. For the same compound, the growth inhibitory activity entry in data set [13] is reported as “little effect”.
Regarding `COC1=C2C[C@@H](C)C[C@H](OC)[C@H](O)[C@@H](C)/C=C(\C)[C@H](OC(N)=O)[C@@H](OC)/C=C\C=C(/C)C(=O)NC(=C(C)C1=O)C2=O` [19Me-GA, (4E,6Z,8S,9S,10E,12S,13R,14S,16R)-13-Hydroxy-8,14,19-trimethoxy-,10,12,16,21-pentamethyl-3,20,22-trioxo-2-azabicyclo[16.3.1]docosa-1(21),4,6,10,18-pentaen-9-yl carbamate], the IC50 in data set [1] (Homo sapiens, SH-SY5Y) was greater than 10 µM.
On the same count and under the same terms, in the case of `C=CCNC1=C2C[C@@H](C)C[C@H](OC)[C@H](O)[C@@H](C)/C=C(\C)[C@H](OC(N)=O)[C@@H](OC)/C=C\C=C(/C)C(=O)NC(=C(c3ccccc3)C1=O)C2=O` [19Ph-17AAG, (4E,6Z,8S,9S,10E,12S,13R,14S,16R)-19-(Allylamino)-13-hydroxy-8,14-dimethoxy-4,10,12,16-tetramethyl-3,20,22-trioxo-21-phenyl-2-azabicyclo[16.3.1]docosa-1(21),4,6,10,18-pentaen-9-yl carbamate] it was greater than 20 µM.
Turning to `CO[C@H]1/C=C\C=C(/C)C(=O)NC2=CC(=O)C(NCCN(C)C)=C(C[C@@H](C)C[C@H](OC)[C@H](O)[C@@H](C)/C=C(\C)[C@@H]1OC(N)=O)C2=O` [DMAG, 17-demethoxy-17-[[2-(dimethylamino)ethyl]amino]-geldanamycin, reference compound], the hepatotoxicity entry in [7] is on record as “significant hepatotoxicity”. The IC50 in data set [1] (setting [14]) is 9.4 µM; in data set [12], 0.13 ± 0.01 µM. Besides, the 17-DMAG-SG conjugate formed result in [5] (5 mM reduced glutathione, within 4 h) is “approximately 47 μM”. Further, in data set [4], the “hepatotoxicity / toxicity” value is “significant toxicities”.
As for `COC1=C2C[C@@H](C)C[C@H](OC)[C@H](O)[C@@H](C)/C=C(\C)[C@H](OC(N)=O)[C@@H](OC)/C=C\C=C(/C)C(=O)NC(=CC1=O)C2=O` [GA, geldanamycin, reference compound], the IC50 in data set [1] (setting [15]) was 0.133 µM. The “hepatotoxicity / toxicity” value in data set [4] was “unacceptable hepatotoxicity”.
